EC50 data for one compound are collected here from ChEMBL document CHEMBL5726498, “Substituted benzothiophenyl derivatives as GPR40 agonists for the treatment of type II diabetes” (2017).

As usually defined, the EC50 is the concentration that produces a half-maximal response.

The target of this assay is Free fatty acid receptor 1 (Homo sapiens, UniProt O14842). The experiment in a line: Calcium Flux Assay: Compounds were tested in a calcium flux assay using transfected HEK293 cells stably expressing either human GPR40 or rat GPR40. Human GPR40 expressing cells were cultured in DMEM-High Glucose media supplemented with 10% fetal bovine serum, 1×L-Glutamine, 1× Penicillin/Streptomycin and 500 μg/mL G418. Rat GPR40 expressing cells were cultured in DMEM-High Glucose media supplemented with 10% fetal bovine serum and 1 μg/mL puromycin. Cells were plated into poly-D-lysine coated 384-well plates and cultured overnight in a 37° C. humidified tissue culture incubator under 5% CO2/[…] atmosphere. On the day of the experiment, the culture media was replaced with assay buffer (HBSS, 20 mM HEPES, 0.1% BSA) and the cells incubated at 37° C. for 1 h. Calcium-sensitive fluorescent dye (Fluo 8 No-Wash Calcium Dye, ABD Bioquest) was then added and the cells incubated for another 30 min at 37° C. followed by 15 min at room temperature while protected from the light. The cell plate and a plate of diluted compounds of Formula (I) were loaded into a fluorescent plate reader that added compounds onto the cells while measuring the fluorescence intensity of each well. (In general: Calcium assays in cells follow changes in intracellular calcium, usually with a dye or a luminescent sensor.)
Chain of Free fatty acid receptor 1 (O14842 whole entry): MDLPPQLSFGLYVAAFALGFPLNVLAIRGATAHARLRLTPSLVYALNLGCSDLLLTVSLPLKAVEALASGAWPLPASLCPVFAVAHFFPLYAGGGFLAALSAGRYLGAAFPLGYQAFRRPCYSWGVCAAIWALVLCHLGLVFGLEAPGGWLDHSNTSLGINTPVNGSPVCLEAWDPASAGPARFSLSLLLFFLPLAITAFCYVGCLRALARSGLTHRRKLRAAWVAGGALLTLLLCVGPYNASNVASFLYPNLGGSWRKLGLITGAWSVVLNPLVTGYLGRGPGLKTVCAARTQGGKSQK

Consider `CC#C[C@@H](CC(=O)O)c1ccc(OCc2ccc3scc(-c4ccccc4S(C)(=O)=O)c3c2)cc1`, for which the EC50 stood at 0.015 µM.
